In patent EP1444982A1, “The use of purine derivatives as selective kinase inhibitors” (MERCKLE GMBH, priority 2003, dated 2004):

Assays:
Type in all cases: biochemical
MEK1 (h) = MEK1 (h) (Homo sapiens, UniProt Q02750); test: Kinase inhibition assay: MEK1 (coupled to MAPK2 assay); settings: 30µM Testsubstanz (100 µM ATP); read-out: Hemmung von Kinasen in % MEK1 (h)
Description: (§1) Alle Kinasen werden auf zehnfache Arbeitskonzentration vor Anwendung in dem Essay verdünnt. Die Zusammensetzung des Verdünnungspuffers ist für jede Kinase in der nachfolgenden Tabelle angegeben.
(§2) Alle Substrate werden gelöst und auf eine Stammlösung in entsalztem Wasser verdünnt.
MEK1 (h)(1-5 mU) in einem Endreaktionsvolumen von 25 µl wird mit 50 mM Tris pH 7.5, 0.2 mM EGTA, 0.1 % b-Mercaptoethanol, 0,01 % Brij-35, 1 µM inaktives MAPK2 (m), 10 mM MgAcetat und kaltem ATP inkubiert (Konzentration wie erforderlich). Die Reaktion wird durch Zugabe von MgATB initiiert. Nach 40-minütiger Inkubation bei Raumtemperatur werden […] dieses Inkubationsgemisches dazu verwendet, den oben beschriebenen MAPK2-Assay zu initiieren.

PKB (h) = PKB (h) (Homo sapiens, UniProt P31749); test: Kinase inhibition assay (33P-ATP, P30 filter, scintillation counting): PKB; settings: 40 min; 30µM Testsubstanz (100 µM ATP); read-out: Hemmung von Kinasen in % PKB (h)
Sequence of PKB (h) (P31749 whole entry): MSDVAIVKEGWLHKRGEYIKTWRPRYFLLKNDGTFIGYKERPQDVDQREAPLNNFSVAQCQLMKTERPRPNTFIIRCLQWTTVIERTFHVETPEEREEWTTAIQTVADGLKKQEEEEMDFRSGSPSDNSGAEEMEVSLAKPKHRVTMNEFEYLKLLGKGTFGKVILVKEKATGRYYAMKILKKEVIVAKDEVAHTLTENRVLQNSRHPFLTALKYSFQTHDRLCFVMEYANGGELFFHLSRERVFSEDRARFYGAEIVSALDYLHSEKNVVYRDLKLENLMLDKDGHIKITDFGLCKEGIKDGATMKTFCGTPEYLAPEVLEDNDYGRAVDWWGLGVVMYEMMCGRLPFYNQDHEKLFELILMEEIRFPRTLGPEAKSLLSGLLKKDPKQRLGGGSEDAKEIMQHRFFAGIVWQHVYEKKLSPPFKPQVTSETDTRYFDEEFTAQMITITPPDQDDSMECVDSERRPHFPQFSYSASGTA
Description: as §1, §2
(§3) PKBα (h)(5-10mU) wird in einem Endreaktionsvolumen von 25 µl mit 8 mM MOPS pH 7.0, 0.2 mM EDTRA, 30 µM GRPRTSSFAEGKK, 10 mM MgAcetat und [γ-^33P-ATP] inkubiert (spezifische Aktivität etwa 50 cpm/pmol, Konzentration wie erforderlich). Die Reaktion wird durch Zugabe von Mg^2+[γ-^33P-ATP] initiiert. Nach 40-minütiger Inkubation bei Raumtemperatur wird die Reaktion durch Zugabe von 5 µl einer 3 %igen Phosphorsäurelösung gestoppt. 10 µl der Reaktion werden dann auf ein P30-Filter gegeben und dreimal jeweils 5 Minuten in 50 mM Phosphorsäure und einmal in Methanol gewaschen. Anschließend wird getrocknet und eine Szintillationszählung durchgeführt.

JNK3 (r) = JNK3 (r) (Rattus norvegicus, UniProt P49187); test: Kinase inhibition assay: JNK3; settings: 30µM Testsubstanz (100 µM ATP); read-out: Hemmung von Kinasen in % JNK3 (r)
Sequence of JNK3 (r) (P49187 whole entry): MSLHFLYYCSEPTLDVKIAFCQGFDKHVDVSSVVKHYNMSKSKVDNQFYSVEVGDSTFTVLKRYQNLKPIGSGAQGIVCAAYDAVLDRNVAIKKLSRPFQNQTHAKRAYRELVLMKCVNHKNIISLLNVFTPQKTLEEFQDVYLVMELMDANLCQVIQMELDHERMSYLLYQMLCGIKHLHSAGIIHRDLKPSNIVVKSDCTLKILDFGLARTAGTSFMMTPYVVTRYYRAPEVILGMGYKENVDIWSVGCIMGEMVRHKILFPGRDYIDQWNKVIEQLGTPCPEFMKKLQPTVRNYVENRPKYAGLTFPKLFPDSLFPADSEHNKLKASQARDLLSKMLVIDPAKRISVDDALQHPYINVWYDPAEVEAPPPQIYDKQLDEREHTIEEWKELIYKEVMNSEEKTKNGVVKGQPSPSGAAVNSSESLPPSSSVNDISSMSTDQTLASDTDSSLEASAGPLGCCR
Excerpt: as §1, §2

GSK3β (h) = GSK3β (h) (Homo sapiens, UniProt P49841); test: Kinase inhibition assay (33P-ATP, P30 filter, scintillation counting): GSK3β; settings: 30µM Testsubstanz (100 µM ATP); read-out: Hemmung von Kinasen in % GSK3β (h)
Sequence of GSK3β (h) (P49841 whole entry): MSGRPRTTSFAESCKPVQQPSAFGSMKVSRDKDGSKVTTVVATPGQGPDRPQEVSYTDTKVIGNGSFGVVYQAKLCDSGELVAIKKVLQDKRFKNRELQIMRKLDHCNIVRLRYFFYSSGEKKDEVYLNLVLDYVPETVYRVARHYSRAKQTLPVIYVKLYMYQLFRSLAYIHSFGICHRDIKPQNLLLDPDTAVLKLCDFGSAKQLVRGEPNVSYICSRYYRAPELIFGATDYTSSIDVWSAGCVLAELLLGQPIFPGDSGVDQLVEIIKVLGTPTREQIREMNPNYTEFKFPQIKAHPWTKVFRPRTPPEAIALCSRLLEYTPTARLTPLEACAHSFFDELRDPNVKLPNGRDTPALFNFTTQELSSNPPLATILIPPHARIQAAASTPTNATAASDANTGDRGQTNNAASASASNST
Description: as §1, §2
GSK3β (h)(5-10mU) in einem Endreaktionsvolumen von 25 µl wird mit 8 mM MOPS pH 7.0, 0.2 mM EDTA, 20 µM […](p) EDEEE (phospho GS2 Peptid), 10 mM MgAcetat und [γ-^33P-ATP] inkubiert (spezifische Aktivität etwa 500 cpm/pmol, Konzentration wie erforderlich). Die Reaktion wird durch Zugabe von Mg^2+[γ-^33P-ATP] initiiert. Nach 40-minütiger Inkubation bei Raumtemperatur wird die Reaktion durch Zugabe von 5 µl einer 3 %igen Phosphorsäurelösung gestoppt. 10 µl der Reaktion werden dann auf ein P30-Filter gegeben und dreimal jeweils 5 Minuten in 50 mM Phosphorsäure und einmal in Methanol gewaschen. Anschließend wird getrocknet und eine Szintillationszählung durchgeführt.

MAPK2 (h) = MAPK2 (h) (Homo sapiens, UniProt P28482); test: Kinase inhibition assay: MAPK2; settings: 30µM Testsubstanz (100 µM ATP); read-out: Hemmung von Kinasen in % MAPK2 (h)
Sequence of MAPK2 (h) (P28482 whole entry): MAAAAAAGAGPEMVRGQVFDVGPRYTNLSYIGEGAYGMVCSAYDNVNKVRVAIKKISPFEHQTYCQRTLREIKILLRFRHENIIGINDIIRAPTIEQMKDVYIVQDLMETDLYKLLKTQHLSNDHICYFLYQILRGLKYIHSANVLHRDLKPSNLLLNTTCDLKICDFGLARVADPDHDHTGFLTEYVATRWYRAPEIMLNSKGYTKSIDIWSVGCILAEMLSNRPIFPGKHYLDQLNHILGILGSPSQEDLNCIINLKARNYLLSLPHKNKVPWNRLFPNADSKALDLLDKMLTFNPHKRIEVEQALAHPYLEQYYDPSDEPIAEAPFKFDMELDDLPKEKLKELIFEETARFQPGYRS
Excerpt: as §1, §2

PKA (h) = test: Kinase inhibition assay (33P-ATP, P30 filter, scintillation counting): PKA; settings: 30µM Testsubstanz (100 µM ATP); 40 min
SAPK2a (h) = SAPK2a (h) (Homo sapiens, UniProt Q16539); test: Kinase inhibition assay (33P-ATP, P30 filter, scintillation counting): SAPK2a; settings: 30µM Testsubstanz (100 µM ATP); read-out: Hemmung von Kinasen in % SAPK2a (h)
Sequence of SAPK2a (h) (Q16539 whole entry): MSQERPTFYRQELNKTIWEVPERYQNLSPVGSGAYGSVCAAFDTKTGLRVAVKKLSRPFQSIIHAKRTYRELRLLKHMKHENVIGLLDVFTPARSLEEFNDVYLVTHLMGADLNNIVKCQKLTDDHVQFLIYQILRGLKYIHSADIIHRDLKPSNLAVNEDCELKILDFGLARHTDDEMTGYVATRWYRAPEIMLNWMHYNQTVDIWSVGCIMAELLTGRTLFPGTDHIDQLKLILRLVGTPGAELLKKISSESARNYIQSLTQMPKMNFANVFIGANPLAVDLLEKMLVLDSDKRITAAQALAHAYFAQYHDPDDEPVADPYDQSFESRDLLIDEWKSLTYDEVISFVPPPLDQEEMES
Description: as §1, §2
as §3, with “SAPK2a (h)” for “PKBα (h)(5-10mU)”, “25” for “8”, “Tris” for “MOPS”, “7,5, 0.02” for “7.0, 0.2”, “EGTA, 0.33 mg/ml Myelin-Basisprotein,” for “EDTRA, 30 µM GRPRTSSFAEGKK,”

c-RAF (h) = c-RAF (h) (Homo sapiens, UniProt P04049); test: Kinase inhibition assay (33P-ATP, P30 filter, scintillation counting): c-RAF; settings: 40 min; 30µM Testsubstanz (100 µM ATP); read-out: Hemmung von Kinasen in % c-RAF (h)
Sequence of c-RAF (h) (P04049 whole entry): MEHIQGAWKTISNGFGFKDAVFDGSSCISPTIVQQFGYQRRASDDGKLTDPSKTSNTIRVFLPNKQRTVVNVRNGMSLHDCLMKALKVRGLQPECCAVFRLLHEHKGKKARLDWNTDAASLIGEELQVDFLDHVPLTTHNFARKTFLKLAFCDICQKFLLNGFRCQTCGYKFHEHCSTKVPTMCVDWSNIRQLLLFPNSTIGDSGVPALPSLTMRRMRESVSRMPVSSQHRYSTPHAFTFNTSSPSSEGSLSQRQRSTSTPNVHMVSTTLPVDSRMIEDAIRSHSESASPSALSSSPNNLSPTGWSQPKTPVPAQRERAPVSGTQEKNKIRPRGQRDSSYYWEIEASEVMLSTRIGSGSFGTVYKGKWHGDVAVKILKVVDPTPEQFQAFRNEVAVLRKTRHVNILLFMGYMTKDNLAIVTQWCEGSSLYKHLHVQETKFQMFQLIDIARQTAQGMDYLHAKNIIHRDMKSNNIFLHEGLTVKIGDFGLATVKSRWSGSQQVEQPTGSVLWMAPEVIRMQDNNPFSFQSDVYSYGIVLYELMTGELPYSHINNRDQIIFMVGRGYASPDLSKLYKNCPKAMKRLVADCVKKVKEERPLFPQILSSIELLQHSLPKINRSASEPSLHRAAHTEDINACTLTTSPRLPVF
Description: as §1, §2
(§4) c-RAF (ha)(5-10 mU) in einem Endreaktionsvolumen von 25 µl wird mit 25 mM Tris pH 7.5,.0.02 mM EGTA, 0.66 mg/ml Myelin-Basisprotein, 10 mM MgAcetat und [γ-^33P-ATP] inkubiert (spezifische Aktivität etwa 50 cpm/pmol, Konzentration wie erforderlich). Die Reaktion wird durch Zugabe von Mg^2+[γ-^33P-ATP] initiiert. Nach 40-minütiger Inkubation bei Raumtemperatur wird die Reaktion durch Zugabe von 5 µl einer 3 %igen Phosphorsäurelösung gestoppt. 10 µl der Reaktion werden dann auf ein P30-Filter gegeben und dreimal jeweils 5 Minuten in 50 mM Phosphorsäure und einmal in Methanol gewaschen. Anschließend wird getrocknet und eine Szintillationszählung durchgeführt.

MAPK1 (h) = MAPK1 (h) (Homo sapiens, UniProt P27361); test: Kinase inhibition assay: MAPK1; settings: 30µM Testsubstanz (100 µM ATP); read-out: Hemmung von Kinasen in % MAPK1 (h)
Sequence of MAPK1 (h) (P27361 whole entry): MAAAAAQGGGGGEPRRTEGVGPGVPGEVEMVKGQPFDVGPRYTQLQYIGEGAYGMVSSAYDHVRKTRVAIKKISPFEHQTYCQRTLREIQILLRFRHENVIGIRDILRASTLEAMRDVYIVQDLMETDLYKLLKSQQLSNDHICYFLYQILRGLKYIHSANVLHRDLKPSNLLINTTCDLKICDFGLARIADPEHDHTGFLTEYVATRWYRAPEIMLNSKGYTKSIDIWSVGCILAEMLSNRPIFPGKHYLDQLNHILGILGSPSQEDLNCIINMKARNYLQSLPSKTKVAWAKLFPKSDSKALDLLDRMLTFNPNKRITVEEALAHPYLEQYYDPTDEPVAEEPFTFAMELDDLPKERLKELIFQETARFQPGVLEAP
Excerpt: as §1, §2

Lck (h) = Lck (h) (Homo sapiens, UniProt P06239); test: Kinase inhibition assay (33P-ATP, P30 filter, scintillation counting): Lck; settings: 30µM Testsubstanz (100 µM ATP); read-out: Hemmung von Kinasen in % Lck (h)
Sequence of Lck (h) (P06239 whole entry): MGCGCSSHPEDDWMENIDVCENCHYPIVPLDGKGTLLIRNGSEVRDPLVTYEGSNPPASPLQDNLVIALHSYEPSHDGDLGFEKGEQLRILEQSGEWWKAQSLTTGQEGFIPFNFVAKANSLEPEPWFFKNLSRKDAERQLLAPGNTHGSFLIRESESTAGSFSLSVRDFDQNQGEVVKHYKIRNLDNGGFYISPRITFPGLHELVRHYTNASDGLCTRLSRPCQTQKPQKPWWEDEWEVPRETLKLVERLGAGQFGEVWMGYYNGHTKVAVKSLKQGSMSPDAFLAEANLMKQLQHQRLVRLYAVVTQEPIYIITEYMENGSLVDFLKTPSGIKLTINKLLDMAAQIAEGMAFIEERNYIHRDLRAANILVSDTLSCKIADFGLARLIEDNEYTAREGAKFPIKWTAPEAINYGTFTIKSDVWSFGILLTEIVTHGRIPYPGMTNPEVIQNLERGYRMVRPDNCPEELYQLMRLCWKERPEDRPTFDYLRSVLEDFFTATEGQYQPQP
Description: as §1, §2
as §4, with “Lck (h)(5-10 mU)” for “c-RAF (ha)(5-10 mU)”, “mit 50” for “mit 25”, “pH 7.5, 0.1” for “pH 7.5,.0.02”, “EGTA, 0.1 mM NaVanadate, 250 µM KVEKIGEGTYGVVYK (Cdc2 Peptid),” for “EGTA, 0.66 mg/ml Myelin-Basisprotein,”, “etwa 500” for “etwa 50”

ROCKII (h) = test: Kinase inhibition assay (33P-ATP, P30 filter, scintillation counting): ROCK-II; settings: 30µM Testsubstanz (100 µM ATP); 40 min

Sequence of MEK1 (h) (Q02750 whole entry): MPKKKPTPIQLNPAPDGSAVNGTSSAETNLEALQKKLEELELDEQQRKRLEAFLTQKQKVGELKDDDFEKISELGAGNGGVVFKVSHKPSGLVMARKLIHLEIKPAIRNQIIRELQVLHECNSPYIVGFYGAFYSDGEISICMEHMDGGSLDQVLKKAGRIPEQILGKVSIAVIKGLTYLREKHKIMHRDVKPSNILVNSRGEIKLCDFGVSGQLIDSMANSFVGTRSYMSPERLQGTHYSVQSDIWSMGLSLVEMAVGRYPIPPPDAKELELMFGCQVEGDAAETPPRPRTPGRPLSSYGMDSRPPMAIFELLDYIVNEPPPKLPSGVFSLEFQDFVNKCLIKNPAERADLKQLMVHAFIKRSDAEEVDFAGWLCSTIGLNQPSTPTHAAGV

| SMILES | inhibition at 30 µM (MEK1 (h)) | inhibition at 30 µM (PKB (h)) | inhibition at 30 µM (JNK3 (r)) | inhibition at 30 µM (GSK3β (h)) | inhibition at 30 µM (MAPK2 (h)) | Hemmung von Kinasen in % PKA (h) (PKA (h)) | inhibition at 30 µM (SAPK2a (h)) | inhibition at 30 µM (c-RAF (h)) | inhibition at 30 µM (MAPK1 (h)) | inhibition at 30 µM (Lck (h)) | Hemmung von Kinasen in % ROCKII (h) (ROCKII (h)) |
| --- | --- | --- | --- | --- | --- | --- | --- | --- | --- | --- | --- |
| Fc1ccc(Sc2ncnc3[nH]ccc23)cc1 [Verbd. 53, 4-(4-Fluoro-phenylsulfanyl)-7H-pyrrolo[2,3-d]pyrimidin] | 36% | 0% | 5% | 4% | 2% | 0% | 79% | 43% | 10% | 52% | 42% |
| Cn1c(-c2ccc([S+](C)[O-])cc2)nc2c(Sc3ccccc3)ncnc21 (centres unmarked) [Verbd. 59, 8-(4-Methansulfinyl-phenyl)-9-methyl-6-phenylsulfanyl-9H-purin] | 3% | 4% | 6% | 4% | 0% | 0% | 27% | 0% | 0% | 30% | 1% |
| Cn1c(-c2ccc([S+](C)[O-])cc2)nc2c(Sc3ccc(F)cc3)ncnc21 (centres unmarked) [Verbd. 60, 6-(4-Fluoro-phenylsulfanyl)-8-(4-methan-sulfinyl-phenyl)-9-methyl-9H-purin] | 1% | 10% | 10% | 4% | 0% | 4% | 44% | 4% | 0% | 30% | 0% |
| Cn1c(-c2ccc(S(C)(=O)=O)cc2)nc2c(Sc3ccccc3)ncnc21 [Verbd. 62, 8-(4-Methansulfonyl-phenyl)-9-methyl-6-phenylsulfanyl-9H-purin] | 4% | 14% | 7% | 0% | 3% | 11% | 36% | 10% | 9% | 16% | 5% |
| C(=Cc1ncnc2[nH]cnc12)c1ccccc1 [Verbd. 72, 6-Styryl-9H-purin] | 7% | 7% | 2% | 20% | 20% | 4% | 17% | 66% | 50% | 37% | 22% |
| c1ccc(Cn2cnc3c(Sc4ccccc4)ncnc32)cc1 [Verbd. 74, 9-Benzyl-6-phenylsulfanyl-9H-purin] | 6% | 1% | 0% | 1% | 0% | 0% | 64% | 0% | 0% | 0% | 1% |
| Fc1ccc(Sc2ncnc3c2ncn3Cc2ccccc2)cc1 [Verbd. 75, 9-Benzyl-6-(4-fluoro-phenylsulfanyl)-9H-purin] | 4% | 1% | 0% | 0% | 0% | 0% | 64% | 0% | 0% | 16% | 5% |
| Fc1ccc(Cn2cnc3c(Sc4ccccc4)ncnc32)cc1 [Verbd. 76, 9-(4-Fluoro-benzyl)-6-phenylsulfanyl-9H-purin] | 1% | 13% | 0% | 0% | 0% | 0% | 67% | 0% | 17% | 12% | 2% |
| Fc1ccc(Cn2cnc3c(Sc4ccc(F)cc4)ncnc32)cc1 [Verbd. 77, 9-(4-Fluoro-benzyl)-6-(4-fluoro-phenylsulfanyl)-9H-purin] | 3% | 0% | 0% | 8% | 0% | 0% | 27% | 0% | 6% | 16% | 0% |
| Cn1c(C#CCCO)nc2c(Sc3ccccc3)ncnc21 [Verbd. 79, 4-(9-Methyl-6-phenylsulfanyl-9H-purin-8-yl)-but-3-yn-1-ol] | 0% | 33% | 0% | 0% | 0% | 0% | 3% | 0% | 0% | 11% | 0% |
